The supplement of paper PMC10307832

Assays:
Experiment in all cases: relative viability (nuclei count vs DMSO), 5 days (fraction); higher = more cells survive
[1] = compound: CC[C@H](C)N1C=C(C2=C(C=C(C=C21)C3=CN=C(C=C3)N4CCNCC4)C(=O)NCC5=C(C=C(NC5=O)C)C)C [GSK126] + Cc1nc(Nc2ncc(C(=O)Nc3c(C)cccc3Cl)s2)cc(N2CCN(CCO)CC2)n1 [Dasatinib] (partner 0.075 µM)
Procedure, shortened: (§1)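 Nuclei were stained with Hoechst during a one-step fixation (final 0.05% Triton X-100, 1% formaldehyde, 1 ug/ml Hoechst) carried out 5 days after dosing, then counted on 4× images. The cells, lung cancer lines in 1536-well plates, had been dosed by pin tool the day after seeding with one drug alone or a fixed anchor-drug dose plus five library-drug doses (not always all listed) in √10 steps. Relative viability is the nuclei count in treated wells divided by that in vehicle wells, and each value is the median of duplicate plates.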

[2] = compound: CC[C@H](C)N1C=C(C2=C(C=C(C=C21)C3=CN=C(C=C3)N4CCNCC4)C(=O)NCC5=C(C=C(NC5=O)C)C)C [GSK126] + CC(=O)Nc1cccc(-n2c(=O)n(C3CC3)c(=O)c3c(Nc4ccc(I)cc4F)n(C)c(=O)c(C)c32)c1 [Trametinib] (partner 0.02 µM)
Procedure, shortened: as §1

[3] = compound: C1CC(C1)(C(=O)O)C(=O)O.[NH2-].[NH2-].[Pt+2] [Carboplatin] + CS(=O)(=O)CCNCc1ccc(-c2ccc3ncnc(Nc4ccc(OCc5cccc(F)c5)c(Cl)c4)c3c2)o1 [Lapatinib] (partner 2 µM)
Procedure, shortened: as §1

[4] = compound: CC[C@H](C)N1C=C(C2=C(C=C(C=C21)C3=CN=C(C=C3)N4CCNCC4)C(=O)NCC5=C(C=C(NC5=O)C)C)C [GSK126] + CS(=O)(=O)CCNCc1ccc(-c2ccc3ncnc(Nc4ccc(OCc5cccc(F)c5)c(Cl)c4)c3c2)o1 [Lapatinib] (partner 2 µM)
Procedure, shortened: as §1

| Cell Line | relative viability ([1]; first compound 0.08 µM) | relative viability ([1]; first compound 0.253 µM) | relative viability ([1]; first compound 0.8 µM) | relative viability ([1]; first compound 2.53 µM) | relative viability ([1]; first compound 8 µM) | relative viability ([2]; first compound 0.08 µM) | relative viability ([2]; first compound 0.253 µM) | relative viability ([2]; first compound 0.8 µM) | relative viability ([2]; first compound 2.53 µM) | relative viability ([2]; first compound 8 µM) | relative viability ([3]; first compound 0.08 µM) | relative viability ([3]; first compound 0.253 µM) | relative viability ([3]; first compound 0.8 µM) | relative viability ([3]; first compound 2.53 µM) | relative viability ([3]; first compound 8 µM) | relative viability ([4]; first compound 0.08 µM) | relative viability ([4]; first compound 0.253 µM) | relative viability ([4]; first compound 0.8 µM) | relative viability ([4]; first compound 2.53 µM) | relative viability ([4]; first compound 8 µM) |
| --- | --- | --- | --- | --- | --- | --- | --- | --- | --- | --- | --- | --- | --- | --- | --- | --- | --- | --- | --- | --- |
| NCI-H650 | 0.468 | 0.493 | 0.432 | 0.39 | 0.455 | 1.02 | 0.891 | 0.919 | 0.945 | 0.994 | 1.06 | 0.852 | 0.876 | 0.976 | 0.521 | 0.833 | 0.838 | 0.97 | 0.978 | 0.955 |
| NCI-H2126 | 0.656 | 0.661 | 0.644 | 0.671 | 0.494 | 0.552 | 0.576 | 0.536 | 0.494 | 0.564 | 0.737 | 0.758 | 0.796 | 0.8 | 0.721 | 0.758 | 0.792 | 0.726 | 0.819 | 0.782 |
| NCI-H838 | 0.344 | 0.308 | 0.313 | 0.266 | 0.209 | 0.58 | 0.51 | 0.437 | 0.477 | 0.483 | 1.05 | 1.1 | 1.04 | 0.951 | 1.04 | 1.12 | 0.938 | 0.882 | 0.865 | 0.906 |
| EPLC-272H | 0.456 | 0.375 | 0.321 | 0.404 | 0.327 | 0.353 | 0.252 | 0.279 | 0.312 | 0.258 | 1.01 | 1.14 | 0.961 | 0.981 | 0.901 | 0.995 | 0.975 | 0.851 | 1.06 | 0.915 |
| NCI-H1437 | 0.392 | 0.368 | 0.416 | 0.441 | 0.349 | 0.507 | 0.528 | 0.494 | 0.459 | 0.501 | 0.869 | 0.832 | 0.838 | 0.887 | 0.641 | 0.95 | 0.729 | 0.776 | 0.748 | 0.852 |
| NCI-H2405 | 0.203 | 0.207 | 0.188 | 0.19 | 0.189 | 0.817 | 0.587 | 0.611 | 0.614 | 0.636 | 1.31 | 1.06 | 1.12 | 1.15 | 0.904 | 1.12 | 1.02 | 1.06 | 1.17 | 1.15 |
| NCI-H1666 | 0.675 | 0.586 | 0.579 | 0.616 | 0.656 | 0.859 | 0.998 | 0.841 | 0.818 | 0.838 | 0.662 | 0.665 | 0.578 | 0.498 | 0.468 | 0.635 | 0.608 | 0.724 | 0.704 | 0.695 |
